In this assay the test system is Cells expressing Notch (ALL-SIL, DND-41, HPB-ALL or TALL-1). Put plainly: Assay for Cell Cycle Arrest (propidium iodide, FACS). In kind it is cell-based. The following applies: concentrations up to 10 μM, incubation typically 4-8 days. The method, then: Assay for Cell Cycle Arrest Cells expressing Notch (ALL-SIL, DND-41, HPB-ALL or TALL-1) (Weng et al, Science, 306 (2004), 269-71) were incubated in the presence or absence of a compound of the instant invention (e.g. the compound of Example 39 below) at concentrations up to 10 μM. At the end of the incubation (typically 4-8 days), the cells were collected, fixed in 70% ethanol on ice for >2 hours, washed, then labelled for 15 min at 37° C. with propidium iodide (0.2 mg/ml) (PI) in the presence of 0.1% Triton X100 and 0.2 mg/ml RNase and subjected to FACS analysis. […] Assay for Apoptosis

Molecules are shown by their SMILES.

With `O=C(O)CC[C@H]1CC[C@@](c2cc(F)ccc2F)(S(=O)(=O)c2ccc(Cl)cc2)CC1` [Example 39, cis-4-[(4-chlorophenyl)sulfonyl]-4-(2,5-difluorophenyl)cyclohexanepropanoic acid], the “cell cycle populations versus untreated controls” value is “severe loss of G2- and S-phase populations, consistent with G0/G1 arrest”.

Source of the values: US8362075B2, “Cyclohexyl sulphones for treatment of cancer” (Merck Sharp & Dohme Corp., priority 2005, dated 2013).
